ChEMBL document CHEMBL1201862, “PubChem BioAssay data set” (2004)
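All cell lines were grown in 96-well plates and treated with compound for 48 hours. Abbreviation: GI50, concentration required for 50% inhibition of growth.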 The source made the active and inactive calls. Rule as the data show it: active = GI50 up to about 1.1 µM and inactive = higher.

How the values were obtained:
Assay in all cases: NCI tumour cell line growth inhibition, 48 h
A549 = system: A549
ACHN = system: ACHN
CAKI-1 = system: CAKI-1
CCRF-CEM = system: CCRF-CEM
COLO 205 = system: COLO 205
HCT-116 = system: HCT-116
HOP-62 = system: HOP-62
M14 = system: M14
MOLT-4 = system: MOLT-4
NCI-H460 = system: NCI-H460
NCI-H522 = system: NCI-H522
SF-539 = system: SF-539
SK-OV-3 = system: SK-OV-3
SNB-19 = system: SNB-19
SW-620 = system: SW-620
UO-31 = system: UO-31
OVCAR-5 = system: OVCAR-5
SR = system: SR
A498 = system: A498

Measured: GI50

CC(C)CCC[C@@H](C)C1CCC2[C@@H]3CC=C4C[C@@H](OC(=O)CCC(=O)NCC[N+](C)(C)CCCS(=O)(=O)[O-])CC[C@]4(C)C3CC[C@@]21C (some centres not stated)
inactive: A549 17.6 µM | ACHN 23.9 µM | CAKI-1 40.7 µM | CCRF-CEM 23.5 µM | COLO 205 19.6 µM | HCT-116 23.1 µM | HOP-62 17.6 µM | M14 19.7 µM | MOLT-4 19.1 µM | NCI-H460 15.2 µM | NCI-H522 26.2 µM | SF-539 16.7 µM | SK-OV-3 > 100 µM | SNB-19 24.3 µM | SW-620 17.7 µM | UO-31 41 µM

CCc1nnc(S)n1/N=C/c1ccc(-c2ccc([N+](=O)[O-])cc2)o1
inactive: A549 > 100 µM | ACHN > 100 µM | CAKI-1 > 100 µM | COLO 205 > 100 µM | HCT-116 > 100 µM | HOP-62 > 100 µM | M14 > 100 µM | MOLT-4 > 100 µM | NCI-H460 > 100 µM | NCI-H522 > 100 µM | OVCAR-5 > 100 µM | SF-539 > 100 µM | SK-OV-3 > 100 µM | SNB-19 > 100 µM | SR > 100 µM | SW-620 > 100 µM | UO-31 > 100 µM

CCCCN(CCCC)C(=O)C(=O)CC(=O)c1ccc(Br)cc1
inactive: A498 > 100 µM | A549 > 100 µM | ACHN > 100 µM | CAKI-1 > 100 µM | CCRF-CEM > 100 µM | COLO 205 > 100 µM | HCT-116 > 100 µM | HOP-62 > 100 µM | M14 > 100 µM | MOLT-4 > 100 µM | NCI-H460 > 100 µM | NCI-H522 > 100 µM | OVCAR-5 > 100 µM | SF-539 > 100 µM | SK-OV-3 > 100 µM | SNB-19 > 100 µM | SW-620 > 100 µM | UO-31 > 100 µM

CCC1=C(C)/C(=C/c2[nH]c(C(Br)Br)c(CC)c2C)N=C1C(Br)Br
inactive: A549 25.2 µM | ACHN 14.6 µM | CCRF-CEM 13.6 µM | COLO 205 5.87 µM | HCT-116 23.8 µM | HOP-62 28.6 µM | M14 55.7 µM | MOLT-4 5.93 µM | NCI-H460 26.4 µM | NCI-H522 13 µM | OVCAR-5 > 100 µM | SF-539 53 µM | SK-OV-3 25.4 µM | SNB-19 33.3 µM | SR 10.8 µM | SW-620 33.1 µM | UO-31 20.7 µM

NNC(=O)CNC(=O)c1ccc(Cl)cc1Cl
inactive: A498 > 100 µM | A549 > 100 µM | ACHN > 100 µM | CAKI-1 > 100 µM | CCRF-CEM > 100 µM | COLO 205 > 100 µM | HCT-116 39.4 µM | HOP-62 > 100 µM | M14 > 100 µM | MOLT-4 > 100 µM | NCI-H460 > 100 µM | NCI-H522 > 100 µM | OVCAR-5 > 100 µM | SF-539 > 100 µM | SK-OV-3 > 100 µM | SNB-19 > 100 µM | SW-620 15.8 µM | UO-31 > 100 µM

CC12CCC(=O)N1c1cc([N+](=O)[O-])ccc1N2 (configuration not stated)
inactive: A498 > 100 µM | A549 > 100 µM | ACHN > 100 µM | CCRF-CEM > 100 µM | COLO 205 > 100 µM | HCT-116 > 100 µM | HOP-62 > 100 µM | M14 > 100 µM | MOLT-4 > 100 µM | NCI-H522 > 100 µM | SF-539 > 100 µM | SK-OV-3 > 100 µM | SNB-19 > 100 µM | SR 76 µM | SW-620 > 100 µM | UO-31 > 100 µM

CCOC(=O)C1S/C(=N\c2cccc(Cl)c2C)N=C1C (configuration not stated)
inactive: A498 34.2 µM | A549 21.9 µM | ACHN 25.3 µM | COLO 205 21.4 µM | HCT-116 22.8 µM | HOP-62 80 µM | MOLT-4 29.7 µM | NCI-H460 33 µM | NCI-H522 18.8 µM | OVCAR-5 18.7 µM | SF-539 25.6 µM | SNB-19 31.4 µM | SR 24.7 µM | SW-620 28.4 µM | UO-31 37.4 µM

O=C(OC1CC(n2cc(F)c(=O)[nH]c2=O)OC1CSC(=O)c1ccccc1)c1ccccc1 (configuration not stated)
inactive: A498 41.6 µM | A549 29.2 µM | ACHN 34.6 µM | CCRF-CEM 37.2 µM | COLO 205 29.6 µM | HCT-116 34.8 µM | HOP-62 51.3 µM | M14 28.1 µM | MOLT-4 25.7 µM | NCI-H460 35.3 µM | NCI-H522 19.5 µM | OVCAR-5 61.8 µM | SF-539 36.5 µM | SK-OV-3 > 100 µM | SNB-19 59.7 µM | SW-620 30.8 µM | UO-31 38.8 µM

CCCCSC1CCSc2c1ccc1ccccc21 (configuration not stated)
inactive: A549 77.8 µM | CAKI-1 > 100 µM | COLO 205 > 100 µM | HCT-116 53 µM | HOP-62 > 100 µM | M14 74.1 µM | MOLT-4 34.3 µM | OVCAR-5 42 µM | SF-539 > 100 µM | SK-OV-3 > 100 µM | SNB-19 > 100 µM | SR 72.3 µM | UO-31 > 100 µM

N#C/C(=C\c1cc(O)cc(O)c1)C(N)=O
inactive: A498 > 100 µM | A549 > 100 µM | ACHN > 100 µM | CAKI-1 > 100 µM | CCRF-CEM > 100 µM | COLO 205 > 100 µM | HCT-116 > 100 µM | HOP-62 > 100 µM | M14 > 100 µM | MOLT-4 > 100 µM | NCI-H460 > 100 µM | NCI-H522 21 µM | OVCAR-5 > 100 µM | SF-539 > 100 µM | SK-OV-3 > 100 µM | SNB-19 > 100 µM | SW-620 > 100 µM | UO-31 > 100 µM

CC(=O)OC1CC2Oc3ccc(C)cc3C(C)(O2)C1=O (configuration not stated)
inactive: A549 > 100 µM | ACHN > 100 µM | CCRF-CEM > 100 µM | COLO 205 > 100 µM | HCT-116 > 100 µM | HOP-62 > 100 µM | M14 > 100 µM | MOLT-4 > 100 µM | NCI-H460 > 100 µM | NCI-H522 > 100 µM | SF-539 > 100 µM | SK-OV-3 > 100 µM | SNB-19 > 100 µM | SW-620 > 100 µM | UO-31 > 100 µM

C[N+](C)(C)CCC(=O)CC[N+](C)(C)C
inactive: A498 70.5 µM | A549 > 100 µM | ACHN 17 µM | CAKI-1 15.7 µM | CCRF-CEM 2.49 µM | COLO 205 16.4 µM | HCT-116 18.4 µM | HOP-62 > 100 µM | M14 18.3 µM | MOLT-4 4.14 µM | NCI-H460 28.2 µM | NCI-H522 15.4 µM | SF-539 19.8 µM | SK-OV-3 > 100 µM | SNB-19 > 100 µM | SW-620 16.1 µM | UO-31 92 µM
